Key:
[1] = tested on: NF-κB mediated transcription; experiment: Firefly luciferase reporter assay in HepG2 cells; format: cell-based, human; details: HepG2 cells transfected with pBIIX-luc, TNFa stimulation
Experimental: HepG2 cells were transiently transfected with firefly luciferase reporter vectors pMyc-TA-luc, pE2F-TAO-luc, pAP1-luc, pCRE-luc, or pBIIX-luc (containing two tandemly repeated NF-kB binding sites), respectively, along with internal control vector phRL-luc which is a promoterless renilla luciferase reporter vector. The day after transfection, cells were pretreated with increasing concentrations of 3500 for 1 h, then cells were stimulated with serum for 24 h, or TPA, forskolin or TNFa for 6 h Firefly and renilla uciferase activities were measured using Promega's dual-luciferase assay kit Data presented is firefly luciferase activity.
HepG2 cells were plated at a density of 2×10^4 per well (48-well plate) and transfected with 0.2 μg of firefly luciferase reporter vector pMyc-TA-luc, pE2F-TA-luc, pAP1-luc, pCRE-luc, or pBIIX-luc (containing two tandemly repeated NF-κB binding sites) respectively, along with internal control vector promoter-less renilla luciferase reporter vector phRL (Promega), using FuGENE 6™ transfection reagent according to the manufacturer's instructions. Cell extracts were prepared and luciferase activity was measured using a Dual-luciferase (firefly and renilla luciferase) assay kit according to the manufacturer's instructions.

KB cells = experiment: Cell cycle analysis (flow cytometry), KB; format: cell-based, human; details: 24 h treatment
Source text: (§1) FIG. 1 illustrates the following referred to in the Examples herein: • “A. Chemical structure” provides the structural formulae for (+)-(S)-tylophorine (also referred to herein as compound “III-2” and DCB-3500); DCB-3501; “compound II-3a of FIG. 15”; and, in FIGS. 18-22, as […]); DCB-3502 (also referred to herein as “compound II-2); and DCB-3503 (also referred to herein as “NSC 716802”; “compound II-3b” of FIG. 15; and “ZH-152”). • “Table 1, B and C” provides EC50 and LD50 values for use of DCB-3500, DCB-3501, DCB-3502, and DCB-3503 against KB and HepG2 cancer cell lines resistant to various anticancer drugs, including VP-16 (etoposide), VCR (vincristine), CPT (camptothecin), and DOX (doxorubicin). • “Table 2 A, and B, and Table 3” illustrate that KB and HepG2 cancer cell lines are inhibited by the compounds of the instant invention. […] At the end of treatment, cells were washed, resuspended in PBS and stained with propidium iodide containing Rnase A for flow cytometric analysis. Data were analyzed using Modfit software.
(§2) KB and HepG2 cells were treated for 24 h with increasing concentrations of DCB-3500 and DCB-3503. At the end of treatment, cells were trypsinized, and the resulting cell suspensions were centrifuged at 1000 rpm for 5 min. The cells were fixed overnight in 70% ethanol at 4° C., centrifuged at 1000 rpm for 5 min, the pellets were washed twice with ice-cold PBS. Cell pellets were then resuspended in 0.5 ml PBS containing 50 μg/ml propidium iodide (Sigma-Aldrich) and 100 μg/ml RNase A (Sigma-Aldrich), incubated at 37° C. for 30 min, and then analyzed by FACScan using Cell Quest software (Becton Dickinson Labware, Franklin Lakes, N.J.). Data were analyzed using Modfit LT version 3.1 software (Verity Software House, Topsham, Me.) for cell cycle profile. (FIG. 1, Table 3)

[2] = tested on: KB cells and its drug resistant cells; experiment: Cross resistance studies in drug resistant cell lines; format: cell-based, human; details: cells resistant to VP-16, VCR, CPT or DOX
Source text: as §1
FIG. 18 describes cross resistance studies in KB cell lines using DCB-3503.
(§3) Cells (1×10^4/well) were plated in 24-well plates. After 24 h, cells were treated with drugs for three generation times, then fixed and stained with 0.5% methylene blue in 50% ethanol for 2 h, followed by washing with tap water to remove excess color. Plates were dried and then resuspended in 1% sarkosyl, rotated at room temperature for 3 h. Cell growth was quantitated from the amount of methylene blue absorbed to the cells as measured by a spectrophotometer (Molecular Dynamics) at 595 nm. All experiments were performed in triplicate wells and were repeated at least three times. (see FIG. 1, Table 1B and Table 1C).

HepG2 cells = experiment: Cell cycle analysis (flow cytometry), HepG2; format: cell-based, human; details: 24 h treatment
Source text: as §1, §2

[3] = tested on: human cell-line tumor panel; experiment: NCI human cell-line tumor panel (DTP screen); format: cell-based; details: for LC50 for several melanoma and lung cancer cell lines versus the other cell lines: DTP panel; for ranking by average concentration required for total growth inhibition (TGI): screen of 33,744 compounds, fifty-four cell lines; for antitumor activity in NCI in vitro screen: sixty-panel in vitro screen against human-derived tumors
Source text: The ranking system was based on the average concentration required to yield a total growth inhibition (TGI) in the numbers of cell lines of the screen (54 for tylo F and tylo G). […] In fact, for many cell lines, the data were off scale; designated as <10^−10 M.

[4] = tested on: KB (head and neck cancer); experiment: In vitro cell culture growth inhibition, KB; format: cell-based, human
Experimental: (§4) Compound II-3 (NSC-716802) was tested in in vitro cell culture studies.
as §3

HepG2 (hepatocarcinoma) = experiment: In vitro cell culture growth inhibition, HepG2; format: cell-based, human
Experimental: as §4, §3

[5] = Toxicity studies in C57BL/6 mice; format: in vivo
Source text: FIG. 21 illustrates toxicity studies of DCB-3503 in C57BL/6 mice.

SK-MEL-2 = experiment: In vitro cell culture growth inhibition, SK-MEL-2; format: cell-based, human
Experimental: as §4, §3

HepG2 tumor = HepG2 tumor growth inhibition in nude mice; format: in vivo; details: 10 mg/kg ip once daily for 5 days; for tumor growth inhibition: HepG2 tumor-bearing nude mice
Source text: FIG. 22 illustrates toxicity and tumor growth inhibition studies using DCB-3503.
Four-week-old male NCR-nude mice were obtained from Taconic, and acclimated to laboratory conditions 1 week before tumor implantation. Human HepG2 tumor xenografts were established by injecting subcutaneously 2×10^6 HepG2 cells. […] Tumor weight was estimated by using the equation: Length of tumor×(wide of tumor/2)^2. (FIG. 1(a))

KB and HepG2 cells = experiment: Clonogenic assay; format: cell-based, human; details: 24 h exposure, colonies counted after 8 generations
Experimental: FIG. 19 illustrates the effect of DCB-3503 (ZH-152) in clonogenic assays. As depicted, cells were seeded at 5×10^4 per well, then DCB-3503 was added at concentrations ⅓, 1× and 3× the IG50. After a 24 h treatment, the cells were recounted and seeded into a fresh 6 well plate at 200 cells per well. After 8 generations of time the colonies were stained with methylene blue and counted. The cloning efficiency for HepG2 was 10% and for KB was 94%. Both cell lines were exposed to DCB-3503 with the concentration indicated for 24 h. The loss of clonegenic efficiency of cells post drug treatment is shown. […] This supports the previous observation using a different procedure.
They were then grown in the absence of the drug. After eight generations, the colonies were stained and counted.
Cells (5×10^4/well) were plated in 6-well plates. After 24 h, cells were treated with drugs for an additional 24 h. Cells were then trypsinized, counted, and cell viability was determined by trypan blue staining, 200 trypan blue negative cells were plated in triplicate in 6-well plates and grown for eight to ten generation times, then fixed and stained with 0.5% methylene blue in 50% ethanol for 1 h, after plates were washed and dried, the colonies were counted. (FIG. 1, Table 1C).

COc1cc2c3c(c4cc(OC)c(OC)cc4c2cc1OC)CN1CCCC1C3 (stereo in doubt) [DCB-3500, (+)-(S)-tylophorine]
activity against NF-κB mediated transcription [1]: potent activity | effect on cell cycle progression (S phase) (KB cells): induce S phase accumulation | cross-resistance with conventional anticancer drugs [2]: no cross-resistance | effect on cell cycle progression (S phase) (HepG2 cells): not in HepG2 cells

COc1cc2c(cc1OC)-c1cc(OC)c(OC)cc1[C@H]1CN3CCC[C@@]3(O)C=C21 [tylo G, tyloindicine G]
LC50 for several melanoma and lung cancer cell lines versus the other cell lines [3]: two orders of magnitude less | ranking by average concentration required for total growth inhibition (TGI) [3]: most potent anticancer agents examined

COc1ccc(C2=CN3CCC[C@H]3C=C2c2cc(O)c(OC)c(OC)c2)cc1OC [tylo I, tyloindicine I]
antitumor activity in NCI in vitro screen [3]: active

COc1ccc(C2=C[C@]3(O)CCCN3C[C@@H]2c2ccc(OC)c(OC)c2)cc1 [tylo F, tyloindicine F]
LC50 for several melanoma and lung cancer cell lines versus the other cell lines [3]: two orders of magnitude less | ranking by average concentration required for total growth inhibition (TGI) [3]: most potent anticancer agents examined

COc1cc2c3c(c4cc(OC)c(OC)cc4c2cc1OC)[C@@H](O)[C@@H]1CCCN1C3 [DCB-3501]
antitumor activity in NCI in vitro screen [3]: extraordinary antitumor activity | cross-resistance with conventional anticancer drugs [2]: no cross-resistance

COc1cc2c(cc1OC)-c1cc(OC)c(OC)cc1[C@H]1CN3CCCC3C=C21 (stereo partly drawn) [II-2, (S)-2,3,6,7-Tetramethoxy-8b,9,10,11,12,12a-hexahydro-9a-aza-cyclopenta[b]-triphenylene]
activity against NF-κB mediated transcription [1]: potent activity | antitumor activity in NCI in vitro screen [3]: active | antitumor activity in NCI in vitro screen ([3]; listed as NSC-717335): potent antitumor activity | potency relative to compound II-3 (times more) ([4]; KB cell growth in culture): 3 to 5 | potency relative to compound II-3 (times more) (HepG2 (hepatocarcinoma); HepG2 cell growth in culture): 3 to 5 | cross-resistance with conventional anticancer drugs [2]: no cross-resistance

COc1cc2c3c(c4cc(OC)c(OC)cc4c2cc1OC)[C@H](O)[C@@H]1CCCN1C3 [II-3, (12S,13S)-2,3,6,7-Tetramethoxy-9,10,11,12,12a,13-hexahydro-9a-aza-cyclopenta[b]triphenylen-13-ol]
activity against NF-κB mediated transcription [1]: potent activity | acute toxicity [5]: manageable | toxicity (dose causing weight loss) [5]: 10 mg/kg | antitumor activity in NCI in vitro screen [3]: active | antitumor activity in NCI in vitro screen ([3]; listed as 3503): extraordinary antitumor activity | antitumor activity in NCI in vitro screen ([3]; listed as NSC-716802): potent antitumor activity | GI50 (SK-MEL-2): 160 nM | weight loss (HepG2 tumor; HepG2 tumor-bearing mice): without significant weight loss | tumor growth inhibition (HepG2 tumor; 10 mg/kg): profound antitumor effect | tumor growth inhibition (HepG2 tumor; listed as DCB-3503, 10 mg/kg): potent inhibitory activity | GI50 ([4]; KB): 200 nM | effect on cell cycle progression (S phase) (KB cells): inhibition at targets that are responsible for S-phase progression | effect on cell cycle progression (S phase) (KB cells; listed as 3503): induce S phase accumulation | effect on cell cycle progression (S phase) (KB cells; listed as DCB-3503): slows down the cell progress in S-phase | GI50 (HepG2 (hepatocarcinoma); HepG2): 60 nM | loss of clonogenic efficiency, HepG2 versus KB (KB and HepG2 cells): more sensitive | loss of clonogenic efficiency, HepG2 versus KB (KB and HepG2 cells; listed as DCB-3503): HepG2 is much more sensitive than KB cells | cross-resistance with conventional anticancer drugs [2]: sensitive | cross-resistance with conventional anticancer drugs ([2]; listed as 3503): no cross-resistance | cross-resistance with conventional anticancer drugs ([2]; listed as ZH-152): still sensitive | effect on cell cycle progression (S phase) (HepG2 cells): inhibition at targets that are responsible for S-phase progression | effect on cell cycle progression (S phase) (HepG2 cells; listed as 3503): not in HepG2 cells | effect on cell cycle progression (S phase) (HepG2 cells; listed as DCB-3503): slows down the cell progress in S-phase

COc1cc2c(cc1OC)[C@H]1CN3CCC[C@H]3C=C1c1ccc(OC)c(O)c1-2 [tylo H, tyloindicine H]
antitumor activity in NCI in vitro screen [3]: active

Source: patent publication US20050222418A1, “Novel tyloindicines and related processes, pharmaceutical compositions and methods” (priority 2002, published 2005)
